Test [1] deals with Pseudomonas aeruginosa PA14. Nature of the test: Growth curve analysis (OD600) in LB-Lennox. The test is classed as cell-based. The procedure: Strains of interest were grown on LB plates overnight, then inoculated into LB liquid broth until late stationary phase was reached (about 18 hours). Strains were then diluted 1,000-fold into fresh medium and grown to early exponential phase (about 4 hours). The optical density at 600 nm (OD600) was measured, and all cultures were normalized to an OD600 equal to 0.1. […] The plate was incubated in a BioTek Synergy H1 plate reader (BioTek, USA) at 37° C. for 20 h with orbital shaking. OD600 measurements were obtained every 2 minutes. […]

Test [2] relates to R/F pyocin gene transcription (P07990-lux reporter). The test is described as follows: Kinetic luciferase assay, P07990-lux reporter for R/F pyocin expression. The test is classed as cell-based, Pseudomonas aeruginosa. The procedure: Strains of interest were cultured as described in the growth curve analysis section. Luminescence was measured in black or white clear-bottom 96-well microtiter plates at 3-min intervals at a sensitivity (gain) setting of 135 or 200 together with the OD600 for 20 hours on a BioTek Synergy H1 plate reader (BioTek, USA). Final luciferase activity values were calculated by normalizing luciferase luminescence to culture density.
Strains of interest were grown on LB plates overnight, and single colonies were inoculated into LB liquid broth with appropriate antibiotics and grown overnight with shaking at 37° C. Strains were then diluted 1,000-fold into fresh LB medium and grown to early exponential phase (2-4 hours). […] The plate was incubated in a BioTek Synergy H1 plate reader (BioTek, USA) at 37° C. for 20 h with double-orbital shaking. OD600 and luminescence (gain=135, integration time, 1 sec) measurements were obtained every 10 minutes. At least 3 biological replicates were assayed for each combination of strain and condition. Results were analyzed in MS Excel and plotted using GraphPad Prism.

The subject of test [3] is R/F pyocin expression (P07990-gfp reporter). The test is classed as cell-based, Pseudomonas aeruginosa. The note with it: wild-type PA14; 50 μM peptide, 135 min.
Method: Strains of interest were grown in 3 mL of LB liquid broth overnight to obtain a saturated culture. They were then diluted 1,000-fold in fresh LB and grown to early exponential phase (about 4 hours). Cultures were concentrated by centrifuging 1 mL of exponential culture into a microcentrifuge tube at 5000 g for 1 min and resuspending in 100 μL. Cells were immobilized by spotting 0.5 μL of the concentrated mixture onto the pad and covering with cover glass. Imaging was performed on a Nikon Eclipse Ti inverted fluorescence microscope equipped with a Photometrics Prime 95B sCMOS digital camera, a Lumencor SOLA SE II 365 LED Light Engine, and an OKO temperature-controlled enclosure. Snapshot images of the slides were taken at 100× magnification in both phase and GFP channels. Automated timelapse imaging was performed at 37° C. For quantification of GFP-positive cells, images were analyzed using the MicrobeJ plugin for ImageJ, segmenting on phase-contrast and taking the mean GFP values of the corresponding fluorescence images. […]
Strains of interest were grown in 3 mL of LB liquid broth with appropriate antibiotics overnight. […] Imaging was immediately performed using a Nikon Eclipse Ti inverted fluorescence microscope with a Photometrics Prime 95B sCMOS digital camera, a Lumencor SOLA SE II 365 LED Light Engine, and an OKO temperature-controlled enclosure. […]
Setting [4] is: wild-type cells, 0.1-50 μM peptide with 0.03 μg/ml ciprofloxacin.
Setting [5] is: wild-type cells, peptide 25-100 μM.
Where [6] appears, read: wild-type cells, peptide concentrations in the 0.1-10 μM range (inhibitor: below 10 μM).
[7] abbreviates: wild-type cells, 50 μM peptide co-treatment with 0.03 μg/ml ciprofloxacin.

With WKHYNY, the culture growth entry in test [1] (setting [4]) is on record as “impacted neither culture growth nor pyocin expression”; in test [1] (setting [5]) it was “no inhibition of growth”; in test [1] (setting [6]), “correspondingly smaller effects, as did the control peptide”; in test [1] (ΔxerC cells, peptide 25-100 μM), “inhibited by WRWYCR but not WKHYNY”. The pyocin expression result in test [2] (setting [4]) is on record as “impacted neither culture growth nor pyocin expression”; in test [2] (setting [5]) it was “Neither the WRWYCR inhibitor nor the WKHYNY control elicited pyocin expression beyond the level of untreated cells”; in test [2] (ΔxerC cells, peptide 25-100 μM), “no differences in pyocin expression were observed”.

In the case of WRWYCR, the culture growth entry was “affected culture growth to a similar degree as 0.03 μg/ml ciprofloxacin” in test [1] (wild-type cells, 10 μM peptide); “initial inhibition of growth” in test [1] (setting [7]); “markedly impaired P. aeruginosa growth” in test [1] (setting [5]); “correspondingly smaller effects” in test [1] (setting [6]); “inhibited” in test [1] (ΔxerC cells, peptide 25-100 μM). The pyocin expression result was “earlier and higher peak of pyocin expression relative to ciprofloxacin alone” in test [2] (wild-type cells, 10 μM peptide co-treatment with 0.03 μg/ml ciprofloxacin); “later peak of pyocin expression” in test [2] (setting [7]); “no increase in pyocin expression over untreated cells” in test [2] (wild-type cells, 0.1-10 μM peptide); “Neither the WRWYCR inhibitor nor the WKHYNY control elicited pyocin expression beyond the level of untreated cells” in test [2] (setting [5]); “no differences in pyocin expression were observed” in test [2] (ΔxerC cells, peptide 25-100 μM). Moreover, in test [3], the “GFP fluorescence of pyocin-GFP reporter cells” value was “did not elicit GFP fluorescence”.

`CO[C@@]12[C@H](COC(N)=O)C3=C(C(=O)C(C)=C(N)C3=O)N1C[C@@H]1N[C@@H]12` [MMC, mitomycin C]: the culture growth result was “inhibited cell growth to a slightly greater degree than 0.03 μg/ml ciprofloxacin” in test [1] (wild-type cells, 0.1 μg/ml MMC) and “initially outgrew both untreated control cultures” in test [1] (xerCY272F, 0.1 μg/ml MMC). For the same compound, the “peak pyocin expression, OD-normalized” value in test [2] (wild-type cells, 0.1 μg/ml MMC) is “peaked at approximately tenfold that induced by ciprofloxacin”. The pyocin expression result was “abolished ciprofloxacin- and MMC-mediated stimulation of pyocin expression” in test [2] (xerCY272F ΔrecA, 0.1 μg/ml MMC); “less expression in xerCY272F cultures than in the wild type” in test [2] (xerCY272F, 0.1 μg/ml MMC); “deletion of prtN abolished the ability of MMC to stimulate pyocin expression” in test [2] (ΔprtN (wild-type background), 0.1 μg/ml MMC); “deletion of recA fully abolished this very strong MMC-stimulated pyocin induction” in test [2] (ΔrecA, 0.1 μg/ml MMC); “fully abrogated pyocin expression” in test [2] (ΔxerC ΔprtN, 0.1 μg/ml MMC); “independent of RecA” in test [2] (ΔxerC ΔrecA, 0.1 μg/ml MMC). Also, the “peak pyocin expression relative to untreated cells” value in test [2] (ΔxerC cells, 0.1 μg/ml MMC) was “approximately twofold stronger, peak of expression than in untreated cells”.

For the compound `O=C(O)c1cn(C2CC2)c2cc(N3CCNCC3)c(F)cc2c1=O` [ciprofloxacin], the culture growth result in test [1] (WT PA14 cells, 0.03 μg/ml ciprofloxacin) is “slower growth en route to a slightly lower final OD”; in test [1] (xerCY272F, 0.03 μg/ml ciprofloxacin), “initially outgrew both untreated control cultures”. In test [1] (Δ69700 cells, 0.03 μg/ml ciprofloxacin), the “OD600 reached in growth curve” value stood at 0.8. Further, in test [1] (ΔxerC strain, 0.03 μg/ml ciprofloxacin), the “culture growth (ciprofloxacin sensitivity)” value was “sensitivity to ciprofloxacin similar to Δ69700”.

These data come from patent US20250115942A1, “SCREENING METHOD FOR ANTI-PSEUDOMONAL AGENTS AND COMPOSITIONS AND METHODS FOR TREATING PSEUDOMONAS INFECTIONS” (Board of Regents for Oklahoma Agricultural and Mechanical …, priority 2021, published 2025).
